Legend:
Test in all cases: Cell viability drug screen, 12-point dose-response AUC
Type in all cases: cell-based, human
FU97 = tested on: FU97; set-up: Average Area Under the Viability Curve (AUC), AUC norm value: scale not given here; details: FU97 cells; 72 hours
Method in brief: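 Trapezoidal AUC of a 12-point, DMSO-normalized dose-response curve. Luminescent viability was measured after 72 h of exposure at 37° C to half-log serial dilutions (0.5% DMSO control), dosed 24 h after plating FU97 cells at 5×10^3 per well.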

SNU16 = SNU16 cells; 72 hours
Method in brief: (§1)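 AUC comes from 12-point half-log dose–response curves, normalized to DMSO-treated cells and integrated trapezoidally, repeats averaged. Luminescent viability read after 72 h compound exposure at 37 °C; cells plated 5×10^3 per well 24 h before dosing.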

NCI_N87 = NCI_N87 cells; 72 hours
Method in brief: as §1

MKN28 = MKN28 cells; 72 hours
Method in brief: as §1

SNU668 = SNU668 cells (SEM subtype); 72 hours
Method in brief: as §1

SNU484 = SNU484 cells (SEM subtype); 72 hours
Method in brief: as §1

SNU719 = SNU719 cells; 72 hours
Method in brief: as §1

YCC2 = YCC2 cells; 72 hours
Method in brief: as §1

MKN74 = MKN74 cells; 72 hours
Method in brief: as §1

AGS = AGS cells (non-SEM subtype); 72 hours
Method in brief: as §1

NCC19 = NCC19 cells; 72 hours
Method in brief: as §1

SNU1750 = SNU1750 cells (SEM subtype); 72 hours
Method in brief: as §1

KATO3 = KATO3 cells; 72 hours
Method in brief: as §1

YCC3 = YCC3 cells; 72 hours
Method in brief: as §1

Hs746T = Hs746T cells (SEM subtype); 72 hours
Method in brief: as §1

MKN1 = MKN1 cells; 72 hours
Method in brief: as §1

SNU1967 = SNU1967 cells; 72 hours
Method in brief: as §1

NCC20 = NCC20 cells; 72 hours
Method in brief: as §1

SNU620 = SNU620 cells; 72 hours
Method in brief: as §1

SNU216 = SNU216 cells (non-SEM subtype); 72 hours
Method in brief: as §1

OCUM1 = OCUM1 cells; 72 hours
Method in brief: as §1

YCC11 = YCC11 cells (SEM subtype); 72 hours
Method in brief: as §1

MKN45 = MKN45 cells (non-SEM subtype); 72 hours
Method in brief: as §1

SNU638 = SNU638 cells; 72 hours
Method in brief: as §1

NCC59 = NCC59 cells; 72 hours
Method in brief: as §1

SK4 = SK4 cells (SEM subtype); 72 hours
Method in brief: as §1

SNU601 = SNU601 cells; 72 hours
Method in brief: as §1

SNU1 = SNU1 cells; 72 hours
Method in brief: as §1

NCC24 = NCC24 cells; 72 hours
Method in brief: as §1

| SMILES | Average Area Under the Viability Curve (AUC), AUC norm value (FU97) | Average Area Under the Viability Curve (AUC), AUC norm value (SNU16) | Average Area Under the Viability Curve (AUC), AUC norm value (NCI_N87) | Average Area Under the Viability Curve (AUC), AUC norm value (MKN28) | Average Area Under the Viability Curve (AUC), AUC norm value (SNU668) | Average Area Under the Viability Curve (AUC), AUC norm value (SNU484) | Average Area Under the Viability Curve (AUC), AUC norm value (SNU719) | Average Area Under the Viability Curve (AUC), AUC norm value (YCC2) | Average Area Under the Viability Curve (AUC), AUC norm value (MKN74) | Average Area Under the Viability Curve (AUC), AUC norm value (AGS) | Average Area Under the Viability Curve (AUC), AUC norm value (NCC19) | Average Area Under the Viability Curve (AUC), AUC norm value (SNU1750) | Average Area Under the Viability Curve (AUC), AUC norm value (KATO3) | Average Area Under the Viability Curve (AUC), AUC norm value (YCC3) | Average Area Under the Viability Curve (AUC), AUC norm value (Hs746T) | Average Area Under the Viability Curve (AUC), AUC norm value (MKN1) | Average Area Under the Viability Curve (AUC), AUC norm value (SNU1967) | Average Area Under the Viability Curve (AUC), AUC norm value (NCC20) | Average Area Under the Viability Curve (AUC), AUC norm value (SNU620) | Average Area Under the Viability Curve (AUC), AUC norm value (SNU216) | other results |
| --- | --- | --- | --- | --- | --- | --- | --- | --- | --- | --- | --- | --- | --- | --- | --- | --- | --- | --- | --- | --- | --- |
| COC(=O)Nc1nc2ccc(C(=O)c3cccs3)cc2[nH]1 [Nocodazole] | 0.3797 | −1.507 | −0.7843 | −0.1478 | −0.1188 | −0.8136 | 4.976 | 1.3363 | 0.7081 | −1.573 | 0.8717 | 0.7502 | 3.188 | 3.066 | 1.28 | −0.6519 | −0.07292 | −1.695 | −0.735 | 2.032 | Average Area Under the Viability Curve (AUC), AUC norm value (OCUM1): 0.7248; Average Area Under the Viability Curve (AUC), AUC norm value (YCC11): −0.8279; Average Area Under the Viability Curve (AUC), AUC norm value (MKN45): 2.005; Average Area Under the Viability Curve (AUC), AUC norm value (SNU638): −0.1875; Average Area Under the Viability Curve (AUC), AUC norm value (NCC59): 3.0345; Average Area Under the Viability Curve (AUC), AUC norm value (SK4): −0.374; Average Area Under the Viability Curve (AUC), AUC norm value (SNU601): 1.743; Average Area Under the Viability Curve (AUC), AUC norm value (SNU1): −0.7242; Average Area Under the Viability Curve (AUC), AUC norm value (NCC24): 0 |
| NC(=O)Nc1cc(-c2cccc(F)c2)sc1C(=O)N[C@H]1CCCNC1 [AZD7762] | −0.7616 | −1.119 | 0.8405 | −0.3131 | 1.537 | 0 | 3.771 | 0.451 | −0.4773 | −0.4403 | 2.796 | −0.9031 | 2.891 | 1.638 | 1.376 | −0.01906 | −0.3626 | −0.4167 | 0.2258 | 0.7004 | Average Area Under the Viability Curve (AUC), AUC norm value (OCUM1): 0.511; Average Area Under the Viability Curve (AUC), AUC norm value (YCC11): −0.9757; Average Area Under the Viability Curve (AUC), AUC norm value (MKN45): −0.3384; Average Area Under the Viability Curve (AUC), AUC norm value (SNU638): 1.404; Average Area Under the Viability Curve (AUC), AUC norm value (NCC59): 2.107; Average Area Under the Viability Curve (AUC), AUC norm value (SK4): −0.9696; Average Area Under the Viability Curve (AUC), AUC norm value (SNU601): −0.957; Average Area Under the Viability Curve (AUC), AUC norm value (SNU1): −0.2026; Average Area Under the Viability Curve (AUC), AUC norm value (NCC24): 1.107 |
| COc1cc([C@@H]2c3cc4c(cc3[C@@H](O[C@@H]3O[C@@H]5CO[C@@H](c6cccs6)O[C@H]5[C@H](O)[C@H]3O)[C@H]3COC(=O)[C@H]23)OCO4)cc(OC)c1O [Teniposide (Vumon), Teniposide] | 1.309 | −0.8192 | 2.319 | 0.1008 | −0.6175 | −1.211 | 2.899 | 0.249 | 0.3993 | −2.042 | 2.415 | −0.5618 | 1.852 | 2.1949 | 0.6261 | −1.955 | −0.7519 | −0.8716 | 0 | 0.9296 | Average Area Under the Viability Curve (AUC), AUC norm value (OCUM1): 1.001; Average Area Under the Viability Curve (AUC), AUC norm value (YCC11): −1.342; Average Area Under the Viability Curve (AUC), AUC norm value (MKN45): 1.933; Average Area Under the Viability Curve (AUC), AUC norm value (SNU638): −0.3584; Average Area Under the Viability Curve (AUC), AUC norm value (NCC59): 1.59; Average Area Under the Viability Curve (AUC), AUC norm value (SK4): −0.2681; Average Area Under the Viability Curve (AUC), AUC norm value (SNU601): −1.094; Average Area Under the Viability Curve (AUC), AUC norm value (SNU1): −0.3019; Average Area Under the Viability Curve (AUC), AUC norm value (NCC24): −0.5766 |
| C/C=C(\C)C(=O)N[C@@H](c1ccccc1)[C@@H](O)C(=O)O[C@H]1C[C@@]2(O)[C@@H](OC(=O)c3ccccc3)[C@@H]3[C@]4(OC(C)=O)CO[C@@H]4C[C@H](O)[C@@]3(C)C(=O)[C@H](OC(C)=O)C(=C1C)C2(C)C [Cephalomannine] | 0.4107 | −1.737 | −1.26 | −1.697 | −0.1911 | −0.7051 | 4.893 | 0.3838 | 0.3528 | −2.055 | 1.7094 | 1.009 | 4.179 | 2.809 | 0.449 | −1.486 | 0.6525 | −0.5011 | −2.403 | 1.8612 | Average Area Under the Viability Curve (AUC), AUC norm value (OCUM1): 1.3887; Average Area Under the Viability Curve (AUC), AUC norm value (YCC11): −1.013; Average Area Under the Viability Curve (AUC), AUC norm value (MKN45): 0; Average Area Under the Viability Curve (AUC), AUC norm value (SNU638): −0.03958; Average Area Under the Viability Curve (AUC), AUC norm value (NCC59): 2.734; Average Area Under the Viability Curve (AUC), AUC norm value (SK4): −1.144; Average Area Under the Viability Curve (AUC), AUC norm value (SNU601): 0.2225; Average Area Under the Viability Curve (AUC), AUC norm value (SNU1): −2.056; Average Area Under the Viability Curve (AUC), AUC norm value (NCC24): −0.7716 |

Reference: patent publication US20250129430A1, “HIGH ATP-AFFINITY PROTEIN AS THERAPEUTIC TARGET FOR INTRACTABLE CANCER MOLECULAR SUBTYPES AND INHIBITOR THEREOF” (VeraVerse Co., Ltd., priority 2021, published 2025)
